Tests used:
NAD(H) kinase (MfnK) = target: T1, NAD(H) kinase (MfnK) (Micrococcus luteus, UniProt Q8VUL9); experiment: NADPH formation detected by mBFP fluorescence; assay type: biochemical; conditions: 50 mM Tris-HCl pH 7.5, 0.1 mM MgCl2, 0.5 mM ATP, 0.5 mM NADH
T1 construct: full-length gene from genomic DNA, C-terminal His tag (pET-22b(+)), expressed in E. coli BL21(DE3), purified
T1 sequence (Q8VUL9 1-362): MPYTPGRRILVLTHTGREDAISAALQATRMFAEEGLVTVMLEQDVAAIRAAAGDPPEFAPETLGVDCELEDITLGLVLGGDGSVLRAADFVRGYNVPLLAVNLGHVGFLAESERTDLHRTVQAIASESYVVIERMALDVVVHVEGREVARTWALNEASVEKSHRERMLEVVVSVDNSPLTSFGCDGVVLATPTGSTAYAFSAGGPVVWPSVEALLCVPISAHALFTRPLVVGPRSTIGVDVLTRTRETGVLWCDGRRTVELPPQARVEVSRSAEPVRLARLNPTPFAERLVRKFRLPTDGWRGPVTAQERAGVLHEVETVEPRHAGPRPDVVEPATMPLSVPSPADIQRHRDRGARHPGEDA

[1] = target: T2, mBFP (metagenome-derived blue fluorescent protein) (uncultured bacterium, UniProt D6NKF4); experiment: fluorescence enhancement of NADPH upon mBFP addition (ex […] nm, em […] nm); assay type: binding; conditions: […] Tris-HCl pH […] °C
T2 construct: full length, 248 amino acids, N-terminal 6-His tag kept (pQE30), expressed in E. coli XL1-Blue
T2 sequence (D6NKF4 1-248): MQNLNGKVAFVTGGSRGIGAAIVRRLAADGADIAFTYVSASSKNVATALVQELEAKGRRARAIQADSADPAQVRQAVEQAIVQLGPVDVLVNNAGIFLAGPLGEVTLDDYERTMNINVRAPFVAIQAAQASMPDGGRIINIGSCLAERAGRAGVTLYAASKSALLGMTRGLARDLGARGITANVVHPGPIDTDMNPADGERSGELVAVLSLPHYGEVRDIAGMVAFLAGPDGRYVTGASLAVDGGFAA

[2] = target: T2, mBFP (metagenome-derived blue fluorescent protein); experiment: competition with NADPH, attenuation of mBFP-NADPH fluorescence; assay type: binding; conditions: […] Tris-HCl pH […] °C; competitive with NADPH; excess NADP+

NC(=O)C1=CN([C@@H]2O[C@H](COP(=O)(O)OP(=O)(O)OC[C@H]3O[C@@H](n4cnc5c(N)ncnc54)[C@H](O)[C@@H]3O)[C@@H](O)[C@H]2O)C=CC1 [NADH]
NADPH formation detected by mBFP fluorescence (NAD(H) kinase (MfnK)): enzymatic conversion of NADH to NADPH by MfnK as a function of the NADH amount

NC(=O)C1=CN([C@@H]2O[C@H](COP(=O)(O)OP(=O)(O)OC[C@H]3O[C@@H](n4cnc5c(N)ncnc54)[C@H](OP(=O)(O)O)[C@@H]3O)[C@@H](O)[C@H]2O)C=CC1 [NADPH]
fluorescence enhancement of NADPH upon mBFP addition (ex 350 nm, em 450 nm) [1]: An immediate enhancement of fluorescence was detected when the purified mBFP was added

NC(=O)c1ccc[n+]([C@@H]2O[C@H](COP(=O)(O)OP(=O)(O)OC[C@H]3O[C@@H](n4cnc5c(N)ncnc54)[C@H](OP(=O)(O)O)[C@@H]3O)[C@@H](O)[C@H]2O)c1 [NADP^+]
competition with NADPH, attenuation of mBFP-NADPH fluorescence [2]: excess NADP^+ resulted in competition for mBFP binding and attenuated the NADPH fluorescence enhancement

Source: PMC6370209, “Rapid and sensitive detection of NADPH via mBFP-mediated enhancement of its fluorescence” (PLoS ONE, 2019)
